This is an account of results in ChEMBL document CHEMBL1201862, “PubChem BioAssay data set” (2004).

Among the test systems are SK-OV-3; UACC-257; CAKI-1; SN12C; SF-539; PC-3; M14; LOX IMVI; NCI-H23; OVCAR-8; OVCAR-3; MCF7; ACHN; K562; CCRF-CEM; BT-549; HT-29; A498; MDA-MB-231.
Holding throughout (assay): NCI-60 cell line screen, 48 h

SMILES strings stand for the structures.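 96-well plates; 48 h exposure; 5 concentrations. Endpoints by linear interpolation between flanking doses. Not reached: highest tested concentration assigned. GI50: concentration for 50% inhibition of growth.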 Calls of active or inactive are those of the source. No stated cut-off is given here; in the data, active = GI50 up to about 1.1 µM and inactive = higher. Where a SMILES comes first, the peptide text is derived from it. [ ]: non-standard residue; d: D form. ξ: configuration not given here. ξThz(5,5-Me2) = CC1(C)SCNC1C(=O)O

`Cc1ncc([N+](=O)[O-])n1CCNC(=O)CCn1ccnc1[N+](=O)[O-]`: the GI50 in the assay with SK-OV-3, in the assay with UACC-257, in the assay on CAKI-1, in the assay on SN12C, in the assay on SF-539 and in the assay with PC-3 was > 100 µM (inactive) each time. The GI50 in the assay on M14, with LOX IMVI, with NCI-H23, in the assay with OVCAR-8, with OVCAR-3 and with MCF7 was > 100 µM (inactive) throughout. The GI50 with ACHN, with K562, with CCRF-CEM, in the assay with BT-549 and in the assay with HT-29 was > 100 µM (inactive) throughout.
Regarding `O=C1C2CCCC2N1Cc1ccccc1` (stereo not given), the GI50 in the assay on SK-OV-3 was > 100 µM (inactive); with UACC-257, > 100 µM (inactive); in the assay with CAKI-1, > 100 µM (inactive); in the assay on SN12C, > 100 µM (inactive); in the assay with SF-539 it was > 100 µM (inactive); with M14 it was 13.6 µM (inactive). For the same compound, the GI50 with LOX IMVI, in the assay on NCI-H23, with OVCAR-8, in the assay with OVCAR-3, with MCF7 and in the assay on A498 was > 100 µM (inactive) each time. In addition, the GI50 in the assay with ACHN, with K562, in the assay with CCRF-CEM and with HT-29 was > 100 µM (inactive) throughout.
Take `CC(C)CCc1c(Cl)nc(Cl)nc1Cl`: the GI50 in the assay on SK-OV-3 is 17 µM (inactive); in the assay on UACC-257, 16.7 µM (inactive); in the assay with SN12C, 10.7 µM (inactive); in the assay on SF-539, 24.8 µM (inactive); with PC-3 it was 13.6 µM (inactive); in the assay on M14, 3.61 µM (inactive). The GI50 in the assay on LOX IMVI was 0.726 µM (active); in the assay on NCI-H23, 8.97 µM (inactive); with OVCAR-8, > 10 µM (inactive); in the assay on OVCAR-3, 11.9 µM (inactive); in the assay with MCF7, 13.8 µM (inactive); in the assay on ACHN, 21.2 µM (inactive). In addition, the GI50 in the assay on K562 is 3.41 µM (inactive); with CCRF-CEM, 0.33 µM (active); with BT-549, 4.1 µM (inactive); in the assay on HT-29, 12.8 µM (inactive).
Consider `CC12CC3C(CC1SCC(=O)O2)C3(C)C` (stereo not given), for which the GI50 in the assay on SK-OV-3, with UACC-257, in the assay with SN12C, in the assay with SF-539, with M14 and with NCI-H23 was > 100 µM (inactive) each time. The GI50 was > 100 µM (inactive) in the assay on OVCAR-8; > 100 µM (inactive) in the assay with OVCAR-3; 16.6 µM (inactive) in the assay on A498; > 100 µM (inactive) in the assay on ACHN; > 100 µM (inactive) in the assay with K562; > 100 µM (inactive) in the assay with CCRF-CEM. Moreover, in the assay on HT-29, the GI50 is > 100 µM (inactive).
Turning to `CCOC(=O)CCC(C(=O)OCC)n1nnc2cc(Nc3c(C)[n+]([O-])c4ccc(Cl)cc4[n+]3[O-])ccc21` (stereo not given), the GI50 is > 100 µM (inactive) in the assay with SK-OV-3; 54.1 µM (inactive) in the assay on UACC-257; 57 µM (inactive) in the assay with CAKI-1; 80.4 µM (inactive) in the assay with SN12C; 82.4 µM (inactive) in the assay with SF-539; > 100 µM (inactive) with PC-3. The GI50 in the assay with M14 is > 100 µM (inactive); in the assay on LOX IMVI it was 52.2 µM (inactive); in the assay with NCI-H23 it was 92 µM (inactive); with OVCAR-8 it was > 100 µM (inactive); in the assay with OVCAR-3, 40.4 µM (inactive); in the assay on MCF7, 34.2 µM (inactive). Besides, the GI50 with A498 was > 100 µM (inactive); with ACHN, 60.7 µM (inactive); in the assay with K562, 69.3 µM (inactive); in the assay on CCRF-CEM, 39.4 µM (inactive); in the assay with BT-549, > 100 µM (inactive); in the assay with HT-29 it was 67.8 µM (inactive).
`CCCC(=O)OCC(O)CO` (stereo not given): the GI50 in the assay on SK-OV-3 is 4970 µM (inactive); with UACC-257 it was > 5000 µM (inactive); with CAKI-1, 2040 µM (inactive); in the assay on SN12C it was > 5000 µM (inactive); in the assay on SF-539 it was > 5000 µM (inactive); with M14, > 5000 µM (inactive). For the same compound, the GI50 with LOX IMVI is > 5000 µM (inactive); in the assay with NCI-H23, > 5000 µM (inactive); with OVCAR-8 it was 2900 µM (inactive); with ACHN, 4830 µM (inactive); with K562 it was 4880 µM (inactive); in the assay with CCRF-CEM, 4500 µM (inactive). In the assay on HT-29, the GI50 is > 5000 µM (inactive).
In the case of `CC(=O)N(O)c1ccc(-c2nc3ccccc3s2)cc1`, the GI50 in the assay on UACC-257 was > 100 µM (inactive); in the assay with CAKI-1, 95.1 µM (inactive); with SN12C, > 100 µM (inactive); in the assay with PC-3, > 100 µM (inactive); with M14, 85.7 µM (inactive); in the assay on LOX IMVI it was 63.4 µM (inactive). For the same compound, the GI50 is 49.7 µM (inactive) in the assay with MDA-MB-231; > 100 µM (inactive) in the assay on NCI-H23; 40.9 µM (inactive) in the assay with OVCAR-8; 52.2 µM (inactive) in the assay on OVCAR-3; 35.6 µM (inactive) with A498; 47.5 µM (inactive) in the assay on ACHN. Moreover, the GI50 with K562 was > 100 µM (inactive); in the assay with CCRF-CEM it was > 100 µM (inactive); in the assay on HT-29 it was 46.6 µM (inactive).
As for `CN/N=C(/C=C/c1ccccc1)C(C)C`, the GI50 in the assay on SK-OV-3, with UACC-257, with CAKI-1, with SN12C, in the assay on SF-539 and in the assay on PC-3 was > 100 µM (inactive) each time. Moreover, the GI50 with M14, in the assay with LOX IMVI, with NCI-H23, with OVCAR-8, in the assay with OVCAR-3 and in the assay with MCF7 was > 100 µM (inactive) throughout. For the same compound, the GI50 in the assay on ACHN, in the assay on K562, in the assay on CCRF-CEM, in the assay on BT-549 and in the assay with HT-29 was > 100 µM (inactive) in each case.
For `C=C(C)[C@@H]1CCC2=C[C@H](OC2=O)[C@@]2(C)C[C@@H]2C2=CC(C)=C(O2)[C@H]1O`, the GI50 with SK-OV-3 is 54.5 µM (inactive); with UACC-257, 39.1 µM (inactive); in the assay on CAKI-1, 21.5 µM (inactive); in the assay on SN12C it was 25.5 µM (inactive); in the assay with SF-539, 49.8 µM (inactive); with PC-3 it was 33.9 µM (inactive). Besides, the GI50 in the assay with M14 is 68.4 µM (inactive); with LOX IMVI, 27.1 µM (inactive); with MDA-MB-231, 28.2 µM (inactive); in the assay with NCI-H23, 25.9 µM (inactive); with OVCAR-8, 25.1 µM (inactive); in the assay with OVCAR-3, 43.4 µM (inactive). In addition, the GI50 in the assay with MCF7 was 53.2 µM (inactive); in the assay on A498, > 75 µM (inactive); in the assay on ACHN, 36.9 µM (inactive); with K562, > 75 µM (inactive); in the assay on CCRF-CEM it was 37.4 µM (inactive); in the assay on HT-29, 23 µM (inactive).
Consider `CC1SCc2nc3ccccc3n21` (stereo not given), for which the GI50 in the assay with SK-OV-3, in the assay with UACC-257, in the assay with CAKI-1, with SN12C, with SF-539 and in the assay with PC-3 was > 100 µM (inactive) in each case. Moreover, the GI50 in the assay with M14, with LOX IMVI, in the assay with MDA-MB-231, in the assay on NCI-H23, in the assay with OVCAR-8 and with OVCAR-3 was > 100 µM (inactive) throughout. Also, the GI50 in the assay on MCF7, in the assay with A498, in the assay on ACHN, in the assay on K562, with CCRF-CEM and in the assay on HT-29 was > 100 µM (inactive) each time.
As for `CCCCN(CCCC)CC(O)c1cc(-c2ccc(Cl)c(Cl)c2)nc2c(Cl)cc(Cl)cc12` (stereo not given), the GI50 in the assay on SK-OV-3 is > 100 µM (inactive); with UACC-257, 86.1 µM (inactive); in the assay with SN12C, 47.4 µM (inactive); with SF-539, > 100 µM (inactive); in the assay with PC-3 it was 36.4 µM (inactive); in the assay on LOX IMVI, 88.1 µM (inactive). In addition, the GI50 in the assay on MDA-MB-231 was 7.64 µM (inactive); in the assay on NCI-H23, 49.5 µM (inactive); with OVCAR-8, > 100 µM (inactive); in the assay on OVCAR-3, > 100 µM (inactive); with MCF7, 6.84 µM (inactive); in the assay on A498, > 100 µM (inactive). Besides, the GI50 was 89.1 µM (inactive) in the assay with ACHN, > 10 µM (inactive) in the assay on K562, 65.3 µM (inactive) in the assay with CCRF-CEM and > 100 µM (inactive) with HT-29.
Turning to `CSCC[C@H](NC(=O)[C@H](CC(C)C)NC(=O)[C@H](Cc1c[nH]cn1)NC(=O)CNC(=O)C1N(C(=O)[C@@H](C)NC(=O)[C@H](Cc2c[nH]c3ccccc23)NC(=O)[C@H](CCC(N)=O)NC(=O)[C@@H](N)CC(N)=O)CSC1(C)C)C(N)=O` (stereo not given in full) (H-NQW[dA][ξThz(5,5-Me2)]GHLM-NH2), the GI50 in the assay with SK-OV-3, in the assay on UACC-257, with CAKI-1, with SN12C, in the assay on SF-539 and with PC-3 was > 25 µM (inactive) in each case. Also, the GI50 with M14, in the assay with LOX IMVI, in the assay on MDA-MB-231, with NCI-H23, in the assay on OVCAR-8 and with OVCAR-3 was > 25 µM (inactive) each time. Also, the GI50 with MCF7, in the assay with A498, with ACHN, with K562, in the assay with CCRF-CEM and in the assay on HT-29 was > 25 µM (inactive) throughout.
